# Assay results: publication PMC8274846, “Biogenic nanoporous silicon carrier improves the efficacy of buparvaquone against resistant visceral leishmaniasis” (PLoS Neglected Tropical Diseases, 2021)
# Values joined by “and” are separate entries in the source; they are usually repeats but may differ in a detail not shown here. Equal values may be shown once.
# Legend:
# [1] = Cytotoxicity studies (CC50) on peritoneal macrophages; format: cell-based, BALB/c mice; conditions: BALB/c, mouse, resident peritoneal macrophages, 48 h exposure, mean ± σ, n = 3
# Method: (§1) Resident peritoneal macrophages were isolated from BALB/c mice. For the isolation, 1.5 mL of sterile thioglycolate medium was injected into the peritoneal cavity to induce non-infectious inflammation. Animals were sacrificed after 5 days, and peritoneal exudates were harvested by intraperitoneal lavage. Cold RPMI (6 mL) was injected into the peritoneal cavity. After 10 min, the injected fluid was withdrawn by the same syringe. From each animal, approximately 3-4 mL of medium was recovered. After centrifugation at 200 g for 15 min, macrophages were collected. […] The cytotoxicity of the drug specimen was evaluated by the CC50 value, which is the concentration required to kill 50% of the host cell population. Macrophages were first isolated from peritoneal lavage as described above. The cells were seeded into 96-well plates at 1x10^6 cells/mL in 200 μL of RPMI-1640 supplemented with 10% FCS, 20 mM L-glutamine, 16 mM NaHCO3, penicillin (50 U/mL) and streptomycin (50 μg/ mL) at 37°C in 5% CO2 for 4 h for adherence. To remove the non-adherent cells, each plate was washed two times with phosphate buffer saline (pH 7.2). […] Microscopic examinations were performed in duplicates with various concentrations of pure drugs or buparvaquone-loaded nanoparticles and also for control wells. The amastigotes cells were counted for all cases using a hemocytometer. The mean of the control wells was considered as 100% survival. The counts in the treated wells at various concentrations were converted into percentages. Giemsa-stained slides of the macrophages infected with amastigotes were observed under a light microscope. Then the numbers of amastigotes and infected macrophages per 100 cells were counted for each slide. The percentage (%) of inhibition was calculated by using the equation %[…]×100, (2) where C is the number of amastigotes/infected macrophages per 100 cells in the control well and T is the number of amastigotes/infected macrophages per 100 cells in the drug-treated well.
# [2] = test system: resident peritoneal macrophages; assay: as above; format: cell-based, BALB/c mice; conditions: 48 h exposure, mean ± σ, n = 3, read-out: CC50
# Method: as §1
# [3] = test system: wild-type L. donovani AG83 amastigotes in spleen; assay: Culture microtitration assay (CMA) in infected mice; format: in vivo, BALB/c mice; conditions: for Spleen: 7 days post-treatment, n = 5; for Suppression (%) of L. donovani amastigote burden in spleen: CMA method, 2 mg/kg
# Method: The infected control group was injected with 0.2 mL of sterile water during the entire dosing period. Seven days post-treatment, the animals were sacrificed, and their spleens were aseptically removed and weighed for determination of amastigote burden by microtitration assay as described elsewhere. Wells were examined for viable and motile promastigotes. The final titer was the last dilution for which the well contained at least one parasite. […] (5) .
# [4] = 2 doses of 2 mg/kg i.p. at 5 days interval
# [5] = 4 doses of 2 mg/kg i.p. at 5 days interval
smiles,measurement,setting,value
"CC(C)(C)[C@H]1CC[C@H](CC2=C(O)C(=O)c3ccccc3C2=O)CC1 [BPQ, Buparvaquone]",CC50 at 48 h,[1],> 300 µM
same,CC50,[2],330 ± 30 µM
same,Spleen,[3]; [4],140 ± 22 mg
same,Suppression (%) of L. donovani amastigote burden in spleen,[3]; [4],52% and 52 ± 3 %
same,Spleen,[3]; [5],131 ± 18 mg
same,Suppression (%) of L. donovani amastigote burden in spleen,[3]; [5],64% and 64 ± 4 %
same,Reduction of parasite burden (CMA),"[3]; spleen, 2 mg/kg i.p., 2 or 4 doses at 5 days interval",50%
